Experimental data published in PubChem BioAssay (NCI).
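Test compounds were applied to cells in 96-well plates for 48 hours at 5 doses. TGI is the concentration that stops growth completely.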

How the values were obtained:
Experiment in all cases: inhibition of tumour cell growth, NCI panel, 48 h
OVCAR-5 ovarian = system: OVCAR-5 ovarian
COLO 205 colon = system: COLO 205 colon
HS 578T breast = system: HS 578T breast
SK-MEL-2 melanoma = system: SK-MEL-2 melanoma
SK-MEL-5 melanoma = system: SK-MEL-5 melanoma
M14 melanoma = system: M14 melanoma
SNB-75 CNS = system: SNB-75 CNS
MDA-N = system: MDA-N
786-0 renal = system: 786-0 renal
LOX IMVI melanoma = system: LOX IMVI melanoma
OVCAR-4 ovarian = system: OVCAR-4 ovarian
CCRF-CEM leukemia = system: CCRF-CEM leukemia
SNB-19 CNS = system: SNB-19 CNS
HCC-2998 colon = system: HCC-2998 colon
RXF 393 renal = system: RXF 393 renal
SK-MEL-28 melanoma = system: SK-MEL-28 melanoma
UACC-62 melanoma = system: UACC-62 melanoma
UACC-257 melanoma = system: UACC-257 melanoma
HT29 colon = system: HT29 colon
U251 CNS = system: U251 CNS
NCI-H460 lung = system: NCI-H460 lung
SF-539 CNS = system: SF-539 CNS
NCI-H522 lung = system: NCI-H522 lung
OVCAR-3 ovarian = system: OVCAR-3 ovarian
CAKI-1 renal = system: CAKI-1 renal
MALME-3M melanoma = system: MALME-3M melanoma
KM12 colon = system: KM12 colon
NCI/ADR-RES ovarian = system: NCI/ADR-RES ovarian
UO-31 renal = system: UO-31 renal
RPMI-8226 leukemia = system: RPMI-8226 leukemia
TK-10 renal = system: TK-10 renal
HCT-116 colon = system: HCT-116 colon
MOLT-4 leukemia = system: MOLT-4 leukemia
PC-3 prostate = system: PC-3 prostate
MCF7 breast = system: MCF7 breast
DU-145 prostate = system: DU-145 prostate
K-562 leukemia = system: K-562 leukemia
ACHN renal = system: ACHN renal
T-47D breast = system: T-47D breast
MDA-MB-435 = system: MDA-MB-435
A549 NSCLC = system: A549 NSCLC
SR leukemia = system: SR leukemia
SF-268 CNS = system: SF-268 CNS
OVCAR-8 ovarian = system: OVCAR-8 ovarian
HCT-15 colon = system: HCT-15 colon
SN12C renal = system: SN12C renal
SW-620 colon = system: SW-620 colon
SK-OV-3 ovarian = system: SK-OV-3 ovarian
HL-60(TB) leukemia = system: HL-60(TB) leukemia
SF-295 CNS = system: SF-295 CNS
NCI-H226 lung = system: NCI-H226 lung
EKVX NSCLC = system: EKVX NSCLC

Structure (SMILES): S=C(NCc1ccccn1)N/N=C/c1ccccn1
- TGI (OVCAR-5 ovarian): > 100 µM
- TGI (COLO 205 colon): 0.379 µM
- TGI (HS 578T breast): 70.1 µM
- TGI (SK-MEL-2 melanoma): 0.876 µM
- TGI (SK-MEL-5 melanoma): 1.5 µM
- TGI (M14 melanoma): > 100 µM
- TGI (SNB-75 CNS): > 100 µM
- TGI (MDA-N): > 100 µM
- TGI (786-0 renal): > 86.1 µM
- TGI (LOX IMVI melanoma): 33.3 µM
- TGI (OVCAR-4 ovarian): > 30.5 µM
- TGI (CCRF-CEM leukemia): < 0.011 µM
- TGI (SNB-19 CNS): 28.6 µM
- TGI (HCC-2998 colon): > 100 µM
- TGI (RXF 393 renal): 4.52 µM
- TGI (SK-MEL-28 melanoma): > 100 µM
- TGI (UACC-62 melanoma): 4.12 µM
- TGI (UACC-257 melanoma): < 0.01 µM
- TGI (HT29 colon): > 100 µM
- TGI (U251 CNS): > 60.2 µM
- TGI (NCI-H460 lung): 2.7 µM
- TGI (SF-539 CNS): 0.396 µM
- TGI (NCI-H522 lung): 0.0713 µM
- TGI (OVCAR-3 ovarian): > 100 µM
- TGI (CAKI-1 renal): 4.33 µM
- TGI (MALME-3M melanoma): 38.3 µM
- TGI (KM12 colon): > 100 µM
- TGI (NCI/ADR-RES ovarian): > 100 µM
- TGI (UO-31 renal): 32.6 µM
- TGI (RPMI-8226 leukemia): < 0.01 µM
- TGI (TK-10 renal): > 100 µM
- TGI (HCT-116 colon): < 0.01 µM
- TGI (MOLT-4 leukemia): < 0.0357 µM
- TGI (PC-3 prostate): > 84.9 µM
- TGI (MCF7 breast): > 100 µM
- TGI (DU-145 prostate): > 100 µM
- TGI (K-562 leukemia): < 0.0108 µM
- TGI (ACHN renal): 1.1 µM
- TGI (T-47D breast): > 61.5 µM
- TGI (MDA-MB-435): > 100 µM
- TGI (A549 NSCLC): 1.46 µM
- TGI (SR leukemia): 0.0113 µM
- TGI (SF-268 CNS): > 100 µM
- TGI (OVCAR-8 ovarian): > 100 µM
- TGI (HCT-15 colon): > 100 µM
- TGI (SN12C renal): 9.25 µM
- TGI (SW-620 colon): > 100 µM
- TGI (SK-OV-3 ovarian): 97.9 µM
- TGI (HL-60(TB) leukemia): < 0.01 µM
- TGI (SF-295 CNS): > 96 µM
- TGI (NCI-H226 lung): 0.163 µM
- TGI (EKVX NSCLC): 2.44 µM
